Results taken from patent publication US20240024290A1, “PHARMACEUTICAL COMPOSITIONS COMPRISING CANNABINOID AGONIST” (ARTELO BIOSCIENCES LIMITED, priority 2020, published 2024).
Several values for one entry are separate records, joined by “and”; a condition that tells them apart may be missing. Equal entries are not always repeated.

Assay: Solubility study of API in liquid, semi-solid and binary excipients (visual, solvent aliquots, Parts 1 and 2)
Conditions: for Aliquot where API first fully dissolved, Part 2 Study: aliquots 1/2/3/4 = 0.8/0.4/0.25/0.1 % w/v
Protocol: The aim of this study was to assess the solubility of the N-(2-(tert-butyl)-1-((4,4-difluorocyclohexyl)methyl)-1H-benzimidazol-5-yl)ethanesulfonamide in a number of different excipients.
The binary semi-solid composition mixtures were manufactured as follows: • I. The semi solids were dispensed then molten overnight at ˜60° C. […] (PEG 6000) • II. PEG 400 was added the next day, as required, (when all the semi-solids were molten) • III. Binary solvent mixture containing PEG 6000 were mixed at ˜80° C. and the remaining binaries were mixed at ˜70° C., until homogenous
Where required, the semi solids were melted prior to use (overnight). The solubility of the API in the selected solvents was assessed in two parts (Part 1 and Part 2 Studies) as follows: • i. Solvent aliquots were added to pre-dispensed API while mixing using a magnetic flea and stirrer. • ii. The temperature of the solvents was maintained as follows: • a. Single-component liquids: Room temperature (ambient) • b. TPGS and PEG 1500: ˜60° C. • c. PEG 6000 and binary solvent mixtures containing PEG 6000: ˜80° C. • iii. Solvents were mixed for a maximum of 1 hour between each aliquot addition. • iv. The solvents were carefully inspected visually between aliquots. • v. The addition of solvent was stopped when: • a. After Aliquot 2 addition if API fully dissolve—(even if API dissolve after Aliquot 1, Aliquot 2 was added) • b. After adding all the solvent aliquots in Table 28 • vi.

With `CCS(=O)(=O)Nc1ccc2c(c1)nc(C(C)(C)C)n2CC1CCC(F)(F)CC1` [Compound I, N-(2-(tert-butyl)-1-((4,4-difluorocyclohexyl)methyl)-1H-benzimidazol-5-yl)ethanesulfonamide] the “Aliquot where API first fully dissolved, Part 2 Study” value (in PEG1500:TPGS (1:9)) was 2nd, the “Aliquot where API first fully dissolved, Part 1 Study” value (in PEG1500:TPGS (1:9), aliquots 1/2/3 = 0.05/0.025/0.0125 % w/v) was 3rd and the “Solubility range (% w/v) Above/Below” value (in PEG1500:TPGS (1:9), listed as API) was > 0.40% w/v and < 0.80% w/v. For the same molecule, the “Aliquot where API first fully dissolved, Part 2 Study” value (in PEG1500:TPGS (9:1)) was 1st, the “Aliquot where API first fully dissolved, Part 1 Study” value (in PEG1500:TPGS (9:1), aliquots 1/2/3 = 0.05/0.025/0.0125 % w/v) was 1st and the “Solubility range (% w/v) Above/Below” value (in PEG1500:TPGS (9:1), upper limit not known) was greater than 0.80% w/v. For the same molecule, the “Aliquot where API first fully dissolved, Part 2 Study” value (in Polysorbate 20, ambient, only after Overnight Hold) was 4th Only, the “Aliquot where API first fully dissolved, Part 1 Study” value (in Polysorbate 20, ambient, only after stirring overnight, aliquots 1/2/3 = 0.05/0.025/0.0125 % w/v) was 3rd^# and the “Solubility range (% w/v) Above/Below” value (in Polysorbate 20, ambient, upper limit not known) was greater than 0.10% w/v. The “Aliquot where API first fully dissolved, Part 2 Study” value (in Polysorbate 80, ambient, only after Overnight Hold) was 4th Only, the “Aliquot where API first fully dissolved, Part 1 Study” value (in Polysorbate 80, ambient, only after stirring overnight, aliquots 1/2/3 = 0.05/0.025/0.0125 % w/v) was 3rd^# and the “Solubility range (% w/v) Above/Below” value (in Polysorbate 80, ambient, upper limit not known) was greater than 0.10% w/v. For the same molecule, the “Aliquot where API first fully dissolved, Part 2 Study” value (in Propylene glycol dilaurate, ambient, only after Overnight Hold) was 4th Only, the “Aliquot where API first fully dissolved, Part 1 Study” value (in Propylene glycol dilaurate, ambient, only after stirring overnight, aliquots 1/2/3 = 0.05/0.025/0.0125 % w/v) was 3rd^# and the “Solubility range (% w/v) Above/Below” value (in Propylene glycol dilaurate, ambient, upper limit not known) was greater than 0.10% w/v. The “Aliquot where API first fully dissolved, Part 2 Study” value (in Propylene glycol monocaprylate, ambient) was 2nd, the “Aliquot where API first fully dissolved, Part 1 Study” value (in Propylene glycol monocaprylate, ambient, aliquots 1/2/3 = 0.05/0.025/0.0125 % w/v) was 2nd and the “Solubility range (% w/v) Above/Below” value (in Propylene glycol monocaprylate, ambient, listed as API) was > 0.40% w/v and < 0.80% w/v. The “Aliquot where API first fully dissolved, Part 1 Study” value (in Soybean oil, ambient, DND = did not dissolve even after 3 aliquots (0.0125 % w/v)) was “DND*”, the “Aliquot where API first fully dissolved, Part 2 Study” value (in molten Capmul 808G) was 3rd and the “Aliquot where API first fully dissolved, Part 1 Study” value (in molten Capmul 808G, aliquots 1/2/3 = 0.05/0.025/0.0125 % w/v) was 1st. The “Solubility range (% w/v) Above/Below” value (in molten Capmul 808G, listed as API) was > 0.25% w/v and < 0.40% w/v, the “Solubility range (% w/v) Above/Below” value (in molten Cremophor RH40, listed as API) was > 0.40% w/v and < 0.80% w/v and the “Aliquot where API first fully dissolved, Part 1 Study” value (in molten Cremophor RH40, only after Overnight Hold, aliquots 1/2/3 = 0.05/0.025/0.0125 % w/v) was 2nd Only. The “Aliquot where API first fully dissolved, Part 2 Study” value (in molten Cremophor RH40, only after stirring overnight) was 2nd^#, the “Aliquot where API first fully dissolved, Part 2 Study” value (in molten Gelucire 48/16) was 4th and the “Aliquot where API first fully dissolved, Part 1 Study” value (in molten Gelucire 48/16, aliquots 1/2/3 = 0.05/0.025/0.0125 % w/v) was 1st. The “Aliquot where API first fully dissolved, Part 2 Study” value (in molten Gelucire 50/13) was 3rd, the “Aliquot where API first fully dissolved, Part 1 Study” value (in molten Gelucire 50/13, aliquots 1/2/3 = 0.05/0.025/0.0125 % w/v) was 2nd and the “Solubility range (% w/v) Above/Below” value (in molten Gelucire 50/13, listed as API) was > 0.25% w/v and < 0.40% w/v. The “Aliquot where API first fully dissolved, Part 2 Study” value (in molten Glyceryl monooleate) was 2nd, the “Aliquot where API first fully dissolved, Part 1 Study” value (in molten Glyceryl monooleate, aliquots 1/2/3 = 0.05/0.025/0.0125 % w/v) was 2nd and the “Solubility range (% w/v) Above/Below” value (in molten Glyceryl monooleate, listed as API) was > 0.40% w/v and < 0.80% w/v. The “Aliquot where API first fully dissolved, Part 1 Study” value (in molten Glyceryl palmitostearate, DND = Did not dissolve (3 aliquots, 0.0125 % w/v)) was “DND*”, the “Aliquot where API first fully dissolved, Part 2 Study” value (in molten Kolliphor HS15) was 2nd and the “Aliquot where API first fully dissolved, Part 1 Study” value (in molten Kolliphor HS15, aliquots 1/2/3 = 0.05/0.025/0.0125 % w/v) was 1st. For the same molecule, the “Solubility range (% w/v) Above/Below” value (in molten Kolliphor HS15, listed as API) was > 0.40% w/v and < 0.80% w/v, the “Aliquot where API first fully dissolved, Part 2 Study” value (in molten PEG 4000) was 2nd and the “Aliquot where API first fully dissolved, Part 1 Study” value (in molten PEG 4000, aliquots 1/2/3 = 0.05/0.025/0.0125 % w/v) was 1st. The “Solubility range (% w/v) Above/Below” value (in molten PEG 4000, listed as API) was > 0.40% w/v and < 0.80% w/v, the “Aliquot where API first fully dissolved, Part 2 Study” value (in molten PEG 6000, ~80° C.) was 1st and the “Aliquot where API first fully dissolved, Part 1 Study” value (in molten PEG 6000, ~80° C., aliquots 1/2/3 = 0.05/0.025/0.0125 % w/v) was 2nd. For the same molecule, the “Solubility range (% w/v) Above/Below” value (in molten PEG 6000, ~80° C., upper limit not known) was greater than 0.80% w/v and the “Aliquot where API first fully dissolved, Part 1 Study” value (in molten Sorbitan palmitate, DND = Did not dissolve (3 aliquots, 0.0125 % w/v)) was “DND*”.
